Results: patent US5849735A, “Tricyclic benzazepine vasopressin antagonists” (American Cyanamid Company, priority 1995, dated 1998)

Molecular target: T1, human V2 vasopressin receptor (Homo sapiens, UniProt P30518)
T1 construct: expressed in transfected cells; host or cells: mouse fibroblast cell line LV-2
Assay: Binding to Membranes of Mouse Fibroblast Cell Line (LV-2) Transfected with the cDNA Expressing the Human V2 Vasopressin Receptor
Experimental: Binding to Membranes of Mouse Fibroblast Cell Line (LV-2) Transfected with the cDNA Expressing the Human V2 Vasopressin Receptor
Flasks of 175 ml capacity, continuing attached cells grown to confluence, are cleared of culture medium by aspiration. The flasks containing the attached cells are rinsed with 2×5 ml of phosphate buffered saline (PBS) and the liquid aspirated off each time. […] The protein content is determined by the Lowry method and the receptor membranes are suspended in 50.0 mM Tris.HCl buffer containing 0.1 mM phenylmethylsulfonylfluoride (PMSF) and 0.2% bovine serum albumin (BSA) to give 2.5 mg receptor protein per ml of suspension.
For binding experiments, the following is added in ml volume to wells of a 96 well format of a microtiter plate: 100.0 ml of 100.0 mM Tris.HCl buffer containing 0.2% heat inactivated BSA, 10.0 mM MgCl2 and a mixture of protease inhibitors: leupeptin, 1.0 mg %; aprotinin, 1.0 mg %; 1,10-phenanthroline, 2.0 mg %; trypsin inhibitor, 10.0 mg % and 0.1 mM PMSF., 20.0 ml of [^3 H] […] Non specific binding is assessed in the presence of 1.0 mM of unlabeled ligand, added in 20 ml volume. […] The radioactivity trapped on the filter disk by the ligand-receptor complex is assessed by liquid scintillation counting in a Packard LS Counter, with an efficiency of 65% for tritium.

T1 sequence (P30518 whole entry): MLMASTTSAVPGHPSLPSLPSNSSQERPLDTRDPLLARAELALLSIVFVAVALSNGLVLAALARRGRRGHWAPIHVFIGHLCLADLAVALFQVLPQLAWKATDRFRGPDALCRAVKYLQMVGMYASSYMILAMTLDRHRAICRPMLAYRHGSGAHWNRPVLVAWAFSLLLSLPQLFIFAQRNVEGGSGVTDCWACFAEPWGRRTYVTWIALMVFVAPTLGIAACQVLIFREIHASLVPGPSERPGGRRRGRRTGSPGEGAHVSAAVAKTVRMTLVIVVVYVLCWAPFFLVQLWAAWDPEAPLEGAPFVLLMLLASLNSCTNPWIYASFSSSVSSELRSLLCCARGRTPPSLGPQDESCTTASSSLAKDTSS

Compound | inhibition at 10 µM (** human V2, LV-2 membranes, 10 μM) [%] | IC50 (** human V2 receptor, LV-2 membranes) [nM]
CCCCOc1ccc(C(=O)N2Cc3ccccc3Cc3ccccc32)cc1 [Example 24] | 26 | –
O=C(c1ccc(-c2ccccc2)cc1)N1Cc2sccc2Cc2ccccc21 [Example 27, 9-([1,1'-Biphenyl]-4-ylcarbonyl)-9,10-dihydro-4H-thieno[2,3-c][1]benzazepine] | – | 1800
